How the values were obtained:
Type in all cases: cell-based
[1] = test system: MCF10A; assay: WST-1 cytotoxicity, 72 h; settings: mean ± SEM
Summary of the method: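 Cells seeded at 1000 per well, with WST-1 added after 72 h and absorbance read at 450 nm 1 h later. Apparent IC50 from a nonlinear fit of % survival versus log concentration; three separate experiments, each n = 3.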

[2] = test system: HT29 cells; assay: Cellular uptake of Pt by ICP-MS; settings: for Intracellular Concentration: HT29, 3 µM; for Intracellular/extracellular ratio: HT29, extracellular 3 µM
Summary of the method: (§1)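 HT29 and MDA-MB-231 cells (10^6/well) exposed to 3 µM Pt(II) or Pt(IV) complex for 0–30 h, washed with cold PBS, digested in 69% HNO3. Pt measured by ICP-MS with ^193Ir internal standard against external standards; given as nmol/10^6 cells or µM/cell, mean ±SEM of three experiments in triplicate.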

[3] = test system: MDA−MB−231 cells; assay: Cellular uptake of Pt by ICP-MS; settings: for Intracellular Concentration: MDA−MB−231, 3 µM; for Intracellular/extracellular ratio: MDA−MB−231, extracellular 3 µM
Summary of the method: as §1

[4] = test system: HT29 cells; assay: DCFDA cellular ROS detection assay; settings: complexes at IC50, TBHP 20 µM
Summary of the method: (§2)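 Cells seeded at 2500 cells/well overnight, then loaded with 25 µM DCFH-DA for 45 min. DCF fluorescence (ex/em 485/535 nm, RFU) read at multiple time points; 20 µM TBHP served as positive control. Three independent experiments in triplicate.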

[5] = test system: MDA−MB−231 cells; assay: DCFDA cellular ROS detection assay; settings: complexes at IC50, TBHP 20 µM
Summary of the method: as §2

In the case of `N[C@H]1CCCC[C@@H]1N.O=[N+]([O-])[O-].O=[N+]([O-])[O-].[Pt+2].c1cnc2c(c1)ccc1cccnc12` [[Pt(1,10-phenanthroline)(1S,2S-diaminocyclohexane)](NO3)2], the IC50 [1] is reported as 3.49 ± 1.39 µM, the “Intracellular Concentration” value ([2]; 0 h) is reported as 0.61 nmol/10^6 cells and the “Intracellular Concentration” value ([2]; 0.5 h) is reported as 0.85 nmol/10^6 cells. The “Intracellular Concentration” value ([2]; 1 h) was 0.72 nmol/10^6 cells, the “Intracellular Concentration” value ([2]; 3 h) was 2.77 nmol/10^6 cells and the “Intracellular Concentration” value ([2]; 6 h) was 5.95 nmol/10^6 cells. For the same compound, the “Intracellular Concentration” value ([2]; 12 h) was 12.59 nmol/10^6 cells, the “Intracellular Concentration” value ([2]; 24 h) was 15.26 nmol/10^6 cells and the “Intracellular Concentration” value ([2]; 30 h) was 16.99 nmol/10^6 cells. The Intracellular/extracellular ratio ([2]; 0 h) was 95.39, the Intracellular/extracellular ratio ([2]; 0.5 h) was 133.55 and the Intracellular/extracellular ratio ([2]; 1 h) was 112.44. For the same compound, the Intracellular/extracellular ratio ([2]; 3 h) was 435.59, the Intracellular/extracellular ratio ([2]; 6 h) was 935.29 and the Intracellular/extracellular ratio ([2]; 12 h) was 1979.17. For the same compound, the Intracellular/extracellular ratio ([2]; 24 h) was 2397.59, the “Intracellular Concentration” value ([3]; 0 h) was 0.40 nmol/10^6 cells and the “Intracellular Concentration” value ([3]; 0.5 h) was 0.46 nmol/10^6 cells. For the same compound, the “Intracellular Concentration” value ([3]; 1 h) was 0.80 nmol/10^6 cells, the “Intracellular Concentration” value ([3]; 3 h) was 0.81 nmol/10^6 cells and the “Intracellular Concentration” value ([3]; 6 h) was 1.03 nmol/10^6 cells. For the same compound, the “Intracellular Concentration” value ([3]; 12 h) was 2.59 nmol/10^6 cells, the “Intracellular Concentration” value ([3]; 24 h) was 3.01 nmol/10^6 cells and the “Intracellular Concentration” value ([3]; 30 h) was 4.79 nmol/10^6 cells. The Intracellular/extracellular ratio ([3]; 0 h) was 63.45, the Intracellular/extracellular ratio ([3]; 0.5 h) was 72.01 and the Intracellular/extracellular ratio ([3]; 1 h) was 126.21. For the same compound, the Intracellular/extracellular ratio ([3]; 3 h) was 127.55, the Intracellular/extracellular ratio ([3]; 6 h) was 161.09 and the Intracellular/extracellular ratio ([3]; 12 h) was 407.32. The Intracellular/extracellular ratio ([3]; 24 h) was 473.33, the Intracellular/extracellular ratio ([3]; 30 h) was 752.93 and the ROS production ([4]; HT29, 24 h) was 219.00 RFU. For the same compound, the ROS production ([4]; HT29, 48 h) was 256.22 RFU, the ROS production ([4]; HT29, 72 h) was 273.00 RFU and the ROS production ([5]; MDA−MB−231, 24 h) was 234.82 RFU. The ROS production ([5]; MDA−MB−231, 48 h) was 285.31 RFU and the ROS production ([5]; MDA−MB−231, 72 h) was 297.81 RFU.

From article PMC11274883, “Anticancer Effect of Pt^[sequence], Pt^II5MESS, Pt^II56MESS and Their Platinum(IV)-Dihydroxy Derivatives against Triple-Negative Breast Cancer and Cisplatin-Resistant Colorectal Cancer” (Cancers, 2024)
